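Exposure lasted 48 hours, with cells grown in 96-well plates and compounds tested at five concentrations. Definition used: TGI = concentration required for complete inhibition of growth.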
Key:
Experiment in all cases: NCI tumour cell line growth inhibition, 48 h
A498 renal = test system: A498 renal
UACC-62 melanoma = test system: UACC-62 melanoma
HOP-92 NSCLC = test system: HOP-92 NSCLC
K-562 leukemia = test system: K-562 leukemia
RXF-631 renal = test system: RXF-631 renal
SK-MEL-5 melanoma = test system: SK-MEL-5 melanoma
SNB-19 CNS = test system: SNB-19 CNS
XF 498 CNS = test system: XF 498 CNS
CCRF-CEM leukemia = test system: CCRF-CEM leukemia
SW-620 colon = test system: SW-620 colon
OVCAR-3 ovarian = test system: OVCAR-3 ovarian
SK-OV-3 ovarian = test system: SK-OV-3 ovarian
HCT-15 colon = test system: HCT-15 colon
MOLT-4 leukemia = test system: MOLT-4 leukemia
OVCAR-5 ovarian = test system: OVCAR-5 ovarian
UO-31 renal = test system: UO-31 renal
SNB-78 CNS = test system: SNB-78 CNS
OVCAR-4 ovarian = test system: OVCAR-4 ovarian
KM20L2 colon = test system: KM20L2 colon
TK-10 renal = test system: TK-10 renal
DLD-1 colon = test system: DLD-1 colon
MALME-3M melanoma = test system: MALME-3M melanoma
ACHN renal = test system: ACHN renal
KM12 colon = test system: KM12 colon
DMS 273 small cell lung = test system: DMS 273 small cell lung
EKVX NSCLC = test system: EKVX NSCLC
HL-60(TB) leukemia = test system: HL-60(TB) leukemia
NCI-H226 lung = test system: NCI-H226 lung
HT29 colon = test system: HT29 colon
M14 melanoma = test system: M14 melanoma
A549 NSCLC = test system: A549 NSCLC
IGROV1 ovarian = test system: IGROV1 ovarian
NCI-H460 lung = test system: NCI-H460 lung
U251 CNS = test system: U251 CNS
M19-MEL melanoma = test system: M19-MEL melanoma
SN12C renal = test system: SN12C renal
HOP-18 NSCLC = test system: HOP-18 NSCLC
HCC-2998 colon = test system: HCC-2998 colon
LOX IMVI melanoma = test system: LOX IMVI melanoma
UACC-257 melanoma = test system: UACC-257 melanoma
786-0 renal = test system: 786-0 renal
RPMI-8226 leukemia = test system: RPMI-8226 leukemia
OVCAR-8 ovarian = test system: OVCAR-8 ovarian
COLO 205 colon = test system: COLO 205 colon
SK-MEL-2 melanoma = test system: SK-MEL-2 melanoma
CAKI-1 renal = test system: CAKI-1 renal
SF-295 CNS = test system: SF-295 CNS
LXFL 529 NSCLC = test system: LXFL 529 NSCLC
NCI-H522 lung = test system: NCI-H522 lung
SNB-75 CNS = test system: SNB-75 CNS
SF-268 CNS = test system: SF-268 CNS
SF-539 CNS = test system: SF-539 CNS
SK-MEL-28 melanoma = test system: SK-MEL-28 melanoma
RXF 393 renal = test system: RXF 393 renal
NCI-H23 lung = test system: NCI-H23 lung

For `COc1ccc(S(=O)(=O)N/N=C/c2cc(I)cc([N+](=O)[O-])c2O)cc1OC`, which TGI (A498 renal) is on record?
Its TGI is over 100 µM.

And the TGI (UACC-62 melanoma)?
The TGI was 59.7 µM.

What about the TGI (HOP-92 NSCLC) of the same compound?
Its TGI is 46 µM.

What about the TGI (K-562 leukemia) of the same compound?
The TGI was over 100 µM.

And the TGI (RXF-631 renal)?
Its TGI is over 100 µM.

And the TGI (SK-MEL-5 melanoma)?
The TGI was 38.3 µM.

What about the TGI (SNB-19 CNS) of the same compound?
Its TGI is 88.3 µM.

And the TGI (XF 498 CNS)?
The TGI was 51.1 µM.

And the TGI (CCRF-CEM leukemia)?
The TGI was over 100 µM.

What about the TGI (SW-620 colon) of the same compound?
Its TGI is over 100 µM.

What about the TGI (OVCAR-3 ovarian) of the same compound?
The TGI was 66.3 µM.

What about the TGI (SK-OV-3 ovarian) of the same compound?
The TGI was 92.2 µM.

And the TGI (HCT-15 colon)?
Its TGI is over 100 µM.

And the TGI (MOLT-4 leukemia)?
The TGI was 64.8 µM.

What about the TGI (OVCAR-5 ovarian) of the same compound?
Its TGI is over 100 µM.

What about the TGI (UO-31 renal) of the same compound?
Its TGI is 53.4 µM.

What about the TGI (SNB-78 CNS) of the same compound?
Its TGI is 65.1 µM.

And the TGI (OVCAR-4 ovarian)?
Its TGI is 70.3 µM.

What about the TGI (KM20L2 colon) of the same compound?
Its TGI is over 100 µM.

And the TGI (TK-10 renal)?
The TGI was over 100 µM.

What about the TGI (DLD-1 colon) of the same compound?
Its TGI is over 100 µM.

And the TGI (MALME-3M melanoma)?
The TGI was 83.9 µM.

And the TGI (ACHN renal)?
The TGI was over 100 µM.

And the TGI (KM12 colon)?
Its TGI is over 100 µM.

And the TGI (DMS 273 small cell lung)?
Its TGI is over 100 µM.

And the TGI (EKVX NSCLC)?
Its TGI is over 100 µM.

And the TGI (HL-60(TB) leukemia)?
The TGI was 57.5 µM.

What about the TGI (NCI-H226 lung) of the same compound?
The TGI was 62.1 µM.

What about the TGI (HT29 colon) of the same compound?
The TGI was over 100 µM.

And the TGI (M14 melanoma)?
Its TGI is over 100 µM.

And the TGI (A549 NSCLC)?
The TGI was over 100 µM.

And the TGI (IGROV1 ovarian)?
The TGI was over 100 µM.

And the TGI (NCI-H460 lung)?
The TGI was over 100 µM.

And the TGI (U251 CNS)?
Its TGI is over 100 µM.

What about the TGI (M19-MEL melanoma) of the same compound?
Its TGI is 99.2 µM.

And the TGI (SN12C renal)?
The TGI was over 100 µM.

What about the TGI (HOP-18 NSCLC) of the same compound?
The TGI was 68.5 µM.

What about the TGI (HCC-2998 colon) of the same compound?
Its TGI is over 100 µM.

And the TGI (LOX IMVI melanoma)?
Its TGI is over 100 µM.

And the TGI (UACC-257 melanoma)?
Its TGI is over 100 µM.

What about the TGI (786-0 renal) of the same compound?
The TGI was over 100 µM.

And the TGI (RPMI-8226 leukemia)?
The TGI was 65.1 µM.

What about the TGI (OVCAR-8 ovarian) of the same compound?
Its TGI is over 100 µM.

And the TGI (COLO 205 colon)?
Its TGI is over 100 µM.

What about the TGI (SK-MEL-2 melanoma) of the same compound?
Its TGI is 45.6 µM.

What about the TGI (CAKI-1 renal) of the same compound?
Its TGI is 85.3 µM.

What about the TGI (SF-295 CNS) of the same compound?
The TGI was over 100 µM.

What about the TGI (LXFL 529 NSCLC) of the same compound?
The TGI was 70.3 µM.

Which TGI (A498 renal) does the source give for `O=C(O)CNS(=O)(=O)c1ccc(NC(=O)CI)cc1` here?
The TGI was over 100 µM.

And the TGI (UACC-62 melanoma)?
Its TGI is 66.8 µM.

And the TGI (HOP-92 NSCLC)?
The TGI was 36.4 µM.

And the TGI (K-562 leukemia)?
The TGI was 62.1 µM.

And the TGI (NCI-H522 lung)?
The TGI was 4.4 µM.

And the TGI (RXF-631 renal)?
The TGI was 32.5 µM.

And the TGI (SK-MEL-5 melanoma)?
The TGI was 63 µM.

And the TGI (SNB-19 CNS)?
Its TGI is over 100 µM.

What about the TGI (XF 498 CNS) of the same compound?
The TGI was 29.5 µM.

And the TGI (CCRF-CEM leukemia)?
Its TGI is 5.85 µM.

And the TGI (SW-620 colon)?
Its TGI is 39.6 µM.

And the TGI (OVCAR-3 ovarian)?
Its TGI is 62 µM.

What about the TGI (SNB-75 CNS) of the same compound?
Its TGI is 32.2 µM.

And the TGI (SK-OV-3 ovarian)?
The TGI was 72.8 µM.

What about the TGI (HCT-15 colon) of the same compound?
The TGI was 41.5 µM.

And the TGI (MOLT-4 leukemia)?
The TGI was 34.5 µM.

What about the TGI (OVCAR-5 ovarian) of the same compound?
Its TGI is 61.1 µM.

What about the TGI (UO-31 renal) of the same compound?
Its TGI is 39.5 µM.

What about the TGI (OVCAR-4 ovarian) of the same compound?
Its TGI is 41.4 µM.

What about the TGI (KM20L2 colon) of the same compound?
Its TGI is 54.5 µM.

And the TGI (TK-10 renal)?
The TGI was over 100 µM.

What about the TGI (DLD-1 colon) of the same compound?
Its TGI is 60.7 µM.

And the TGI (MALME-3M melanoma)?
The TGI was 39.6 µM.

And the TGI (ACHN renal)?
Its TGI is over 100 µM.

What about the TGI (KM12 colon) of the same compound?
Its TGI is 68.5 µM.

And the TGI (DMS 273 small cell lung)?
Its TGI is 38.8 µM.

What about the TGI (EKVX NSCLC) of the same compound?
Its TGI is 81.6 µM.

What about the TGI (SF-268 CNS) of the same compound?
Its TGI is 44.3 µM.

And the TGI (HL-60(TB) leukemia)?
The TGI was 37.5 µM.

And the TGI (NCI-H226 lung)?
The TGI was over 100 µM.

What about the TGI (HT29 colon) of the same compound?
The TGI was 54.4 µM.

What about the TGI (M14 melanoma) of the same compound?
The TGI was 44.3 µM.

What about the TGI (A549 NSCLC) of the same compound?
The TGI was over 100 µM.

And the TGI (IGROV1 ovarian)?
Its TGI is over 100 µM.

What about the TGI (NCI-H460 lung) of the same compound?
The TGI was 64 µM.

What about the TGI (U251 CNS) of the same compound?
The TGI was 35 µM.

What about the TGI (SF-539 CNS) of the same compound?
Its TGI is 30 µM.

And the TGI (M19-MEL melanoma)?
The TGI was over 100 µM.

What about the TGI (SN12C renal) of the same compound?
Its TGI is over 100 µM.

And the TGI (HOP-18 NSCLC)?
Its TGI is over 100 µM.

And the TGI (HCC-2998 colon)?
Its TGI is over 100 µM.

And the TGI (LOX IMVI melanoma)?
Its TGI is 37.6 µM.

What about the TGI (UACC-257 melanoma) of the same compound?
The TGI was over 100 µM.

And the TGI (786-0 renal)?
Its TGI is 28.6 µM.

What about the TGI (SK-MEL-28 melanoma) of the same compound?
Its TGI is 72.4 µM.

What about the TGI (RPMI-8226 leukemia) of the same compound?
Its TGI is 38.6 µM.

What about the TGI (OVCAR-8 ovarian) of the same compound?
The TGI was 48.6 µM.

And the TGI (COLO 205 colon)?
The TGI was 96.8 µM.

What about the TGI (SK-MEL-2 melanoma) of the same compound?
The TGI was 73.6 µM.

What about the TGI (CAKI-1 renal) of the same compound?
Its TGI is over 100 µM.

What about the TGI (SF-295 CNS) of the same compound?
The TGI was 68.5 µM.

What about the TGI (LXFL 529 NSCLC) of the same compound?
The TGI was 20.2 µM.

What about the TGI (RXF 393 renal) of the same compound?
Its TGI is 31.1 µM.

What about the TGI (NCI-H23 lung) of the same compound?
Its TGI is 39.8 µM.

— PubChem BioAssay (NCI)
